Measured values as given in article PMC6094398, “New tools for evaluating protein tyrosine sulfation: tyrosylprotein sulfotransferases (TPSTs) are novel targets for RAF protein kinase inhibitors” (Biochemical Journal, 2018).
Where “and” joins values, the source holds several entries; their conditions need not be identical. Equal entries are not always repeated. Where two headings read alike, the source gives them in different places.

Columns and labels:
[1] = molecular target: T1, human TPST1 (Homo sapiens, UniProt O60507); assay: EZ Reader II microfluidic mobility-shift CC4-tide sulfation assay, TPST1; assay type: biochemical; conditions: for IC50 / TPST1 inhibition at 400 μM: 10 µM PAPS; for Sensitivity of TPST1 inhibition to the concentration of PAPS: increasing PAPS, fixed 20 µM PAP or 100 µM ATP, CoA, dephospho-CoA; for TPST1 inhibition at 400 μM: Fig 8A, inhibitor 400 µM; for inhibition at 20 µM: read-out: TPST1 enzyme inhibition, PKIS screen
T1 construct: human TPST1 (residues Lys43–Leu360) and TPST2 (residues Gly43–Leu359) enzymes lacking the transmembrane domains; made in house; host or cells: E. coli BL21 (DE3) pLysS
T1 sequence (O60507 43-360): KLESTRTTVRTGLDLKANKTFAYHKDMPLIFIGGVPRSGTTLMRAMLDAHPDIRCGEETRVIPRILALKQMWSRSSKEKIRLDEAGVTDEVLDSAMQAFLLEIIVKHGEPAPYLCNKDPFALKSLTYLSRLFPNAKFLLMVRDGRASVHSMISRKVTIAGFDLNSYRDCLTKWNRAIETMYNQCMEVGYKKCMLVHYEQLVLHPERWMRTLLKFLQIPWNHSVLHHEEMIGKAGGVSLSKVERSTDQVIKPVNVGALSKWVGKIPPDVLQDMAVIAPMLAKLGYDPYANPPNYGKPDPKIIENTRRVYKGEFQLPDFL

[2] = molecular target: T1, human TPST1; assay: Differential scanning fluorimetry (thermal shift) assay with TPST1; assay type: binding; conditions: TPST1 5 µM; for Thermal shift of TPST1 in the presence of Mg2+ ions (in words) / Thermal shift of TPST1 (in words) / ΔTm TPST1: DSF; for Thermal shift of TPST1 in the presence of Mg2+ ions (in words): 0.5 mM nucleotide + 10 mM MgCl2; for Thermal shift of TPST1 (in words) / ΔTm TPST1: 0.5 mM nucleotide; for Thermal shift of TPST1 (in words): panel of nucleotide-based cofactors; for ΔTm TPST1: relative to buffer control
[3] = molecular target: T2, human TPST2 (Homo sapiens, UniProt O60704); assay: Differential scanning fluorimetry (thermal shift) assay with TPST2; assay type: binding; conditions: DSF, TPST2 5 µM; for Thermal shift of TPST2 in the presence of Mg2+ ions (in words): 0.5 mM nucleotide + 10 mM MgCl2; for Thermal shift of TPST2 (in words): panel of nucleotide-based cofactors
T2 construct: TPST2 (residues Gly43–Leu359) enzymes lacking the transmembrane domains; made in house; host or cells: E. coli BL21 (DE3) pLysS
T2 sequence (O60704 43-359): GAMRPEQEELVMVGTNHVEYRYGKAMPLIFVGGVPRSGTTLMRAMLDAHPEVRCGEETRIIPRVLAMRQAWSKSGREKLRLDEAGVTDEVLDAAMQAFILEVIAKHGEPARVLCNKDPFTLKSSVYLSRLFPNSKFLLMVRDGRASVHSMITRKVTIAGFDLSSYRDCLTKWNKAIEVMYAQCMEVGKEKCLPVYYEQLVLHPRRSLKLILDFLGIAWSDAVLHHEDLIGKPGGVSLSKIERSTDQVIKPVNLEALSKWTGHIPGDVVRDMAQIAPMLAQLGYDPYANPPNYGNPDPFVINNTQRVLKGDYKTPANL

[4] = molecular target: T1, human TPST1; assay: GST-CC4-tide tyrosine sulfation by TPST1, immunoblotting with monoclonal sulfotyrosine antibody; assay type: biochemical; conditions: for Inhibition of GST-CC4-tide tyrosine sulfation by TPST1 (immunoblot, in words): GST-CC4-tide 1 µg, 10 µM PAPS, increasing concentrations of inhibitor
Description: After the assay, proteins were denatured in Laemmli sample buffer, heated at 95°C for 5 min and then analysed by SDS–PAGE with 10% (v/v) polyacrylamide gels. Gels were stained and destained using a standard Coomassie Brilliant Blue protocol. To evaluate protein sulfation and phosphorylation by immunoblotting, standard western blotting procedures were followed using monoclonal anti-sulfotyrosine antibody clone Sulfo-1C-A2 (Millipore) generated using a phage display procedure and sulfotyrosine selection peptide antigens in the presence of appropriate positive and negative controls, and modifications visualised using the ECL reagent.

[5] = system: TPST2; conditions: cited from earlier work
[6] = system: TPST1; conditions: read-out: Km for PAPS, TPST1, literature reports; cited from earlier work
[7] = system: heparin sulfate 2-O sulfotransferase HS2ST; parameters: method as in PMID 29934491; conditions: cited from earlier work
[8] = substrate: Nc1ncnc2c1ncn2C1OC(COP(=O)(O)OS(=O)(=O)O)C(OP(=O)(O)O)C1O; assay: EZ Reader II microfluidic mobility-shift CC4-tide sulfation assay, TPST1; assay type: biochemical, human; conditions: other: CC4-tide 2 µM, TPST1 0.1 µM, four independent experiments; pH 7.4
[9] = Fig 7C, TPST1 0.1 µM, CC4-tide, 30 min at 37°C, duplicate, read-out: TPST1 estimated IC50, PKIS inhibitors
[10] = Fig 5A, CC4-tide, 0.1 µM TPST1, absence of MgCl2, read-out: IC50 TPST1, panel of nucleotides
[11] = Fig 8B, TPST1 0.1 µM pre-incubated with compound, read-out: TPST1 estimated IC50, RAF kinase inhibitors

## Nc1nc(-c2ccc3c(c2)C(=Cc2cc(Br)c(O)c(Br)c2)C(=O)N3)cs1 [GW407323A]
[1]; [9]
  IC50: 6 µM

## Nc1nc2c(ncn2[C@@H]2O[C@H](COP(=O)(O)OP(=O)(O)OP(=O)(O)O)[C@@H](O)[C@H]2O)c(=O)[nH]1 [GTP, guanosine 5′-triphosphate]
[2]
  Thermal shift of TPST1 in the presence of Mg2+ ions (in words): abolished
  Thermal shift of TPST1 (in words): marked stabilisation
[3]
  Thermal shift of TPST2 in the presence of Mg2+ ions (in words): abolished
[3]; 0.5 mM nucleotide
  Thermal shift of TPST2 (in words): marked stabilisation

## Nc1ncnc2c1ncn2[C@@H]1O[C@H](COP(=O)(O)OP(=O)(O)OP(=O)(O)O)[C@@H](O)[C@H]1O [ATP, adenosine 5′-triphosphate]
[1]; [10]
  IC50: 379 µM

## CC(C)(COP(=O)(O)OP(=O)(O)OC[C@H]1O[C@@H](n2cnc3c(N)ncnc32)[C@H](O)[C@@H]1OP(=O)(O)O)[C@@H](O)C(=O)NCCC(=O)NCCS [CoA, coenzyme A]
[2]
  Thermal shift of TPST1 (in words): marked stabilisation
  ΔTm TPST1: ~11 °C
[3]; 0.5 mM nucleotide
  Thermal shift of TPST2 (in words): marked stabilisation
[1]; CC4-tide
  Sensitivity of TPST1 inhibition to the concentration of PAPS: highly sensitive
[1]; [10]
  IC50: 87 µM and 87.3 µM

## CC(=O)SCCNC(=O)CCNC(=O)[C@H](O)C(C)(C)COP(=O)(O)OP(=O)(O)OC[C@H]1O[C@@H](n2cnc3c(N)ncnc32)[C@H](O)[C@@H]1OP(=O)(O)O [acetyl CoA]
[2]
  Thermal shift of TPST1 (in words): marked stabilisation
[3]; 0.5 mM nucleotide
  Thermal shift of TPST2 (in words): marked stabilisation

## O=C1Nc2ccc(I)cc2C1=Cc1cc(Br)c(O)c(Br)c1 [GW305074X]
[1]; [9]
  IC50: ~5 µM
[4]
  Inhibition of GST-CC4-tide tyrosine sulfation by TPST1 (immunoblot, in words): low-micromolar inhibitor

## Nc1ncnc2c1ncn2C1OC(COP(=O)(O)OS(=O)(=O)O)C(OP(=O)(O)O)C1O (centres unmarked) [PAPS, adenosine 3′-phosphate 5′-phosphosulfate]
[2]
  ΔTm TPST1: ~3 °C
[3]; 0.5 mM nucleotide, relative to buffer control
  ΔTm TPST2: ~9 °C
[5]; read-out: Km for PAPS, TPST2 obtained from transfected CHO cell medium
  Km: 12 µM
[5]; read-out: Km for PAPS, recombinant TPST2 isolated from baculovirus-infected insect cells
  Km: ~5 µM
[6]
  Km: 2 to 5 µM

## Cc1ccc(C(=O)Nc2ccc(S(=O)(=O)O)c3cc(S(=O)(=O)O)cc(S(=O)(=O)O)c23)cc1NC(=O)c1cccc(NC(=O)Nc2cccc(C(=O)Nc3cc(C(=O)Nc4ccc(S(=O)(=O)O)c5cc(S(=O)(=O)O)cc(S(=O)(=O)O)c45)ccc3C)c2)c1 [Suramin, suramin]
[7]
  HS2ST inhibition in vitro (in words): inhibitory activity

## Nc1ncnc2c1ncn2C1OC(COP(=O)(O)O)C(OP(=O)(O)O)C1O (centres unmarked) [PAP, adenosine 3′–5′-diphosphate]
[2]
  Thermal shift of TPST1 (in words): marked stabilisation
  ΔTm TPST1: ~10 °C
[3]; 0.5 mM nucleotide
  Thermal shift of TPST2 (in words): marked stabilisation
[1]; CC4-tide
  Sensitivity of TPST1 inhibition to the concentration of PAPS: highly sensitive
[1]; [10]
  IC50: 1.5 µM

## CCCS(=O)(=O)Nc1ccc(F)c(C(=O)c2c[nH]c3ncc(Cl)cc23)c1F [PLX-4720]
[1]; [11]
  IC50: > 400 µM

## O=C(O)C1=CC(=C(c2ccc(O)c(C(=O)O)c2)c2ccc(O)c(C(=O)O)c2)C=CC1=O [Aurintricarboxylic acid, aurintricarboxylic acid]
[7]
  HS2ST inhibition in vitro (in words): inhibitory activity

## Cn1c(Nc2ccc(C(F)(F)F)cc2)nc2cc(Oc3ccnc(-c4ncc(C(F)(F)F)[nH]4)c3)ccc21 [RAF265]
[1]; TPST1 0.1 µM, duplicate
  TPST1 inhibition at 400 μM: essentially complete TPST1 inhibition
[1]; [11]
  IC50: 6.5 µM
[4]
  Inhibition of GST-CC4-tide tyrosine sulfation by TPST1 (immunoblot, in words): dose-dependent inhibition
[4]; GST-CC4-tide, increasing PAPS concentration
  Mode of TPST1 inhibition with respect to PAPS (immunoblot densitometry): partially competitive mode of inhibition with PAPS
[7]
  HS2ST inhibition in vitro (in words): did not inhibit HS2ST at any concentration tested

## Nc1ncnc2c1ncn2[C@@H]1O[C@H](COP(=O)(O)OP(=O)(O)O)[C@@H](O)[C@H]1O [ADP, adenosine 5′-diphosphate]
[2]
  Thermal shift of TPST1 in the presence of Mg2+ ions (in words): abolished
  Thermal shift of TPST1 (in words): marked stabilisation
[3]
  Thermal shift of TPST2 in the presence of Mg2+ ions (in words): abolished
[3]; 0.5 mM nucleotide
  Thermal shift of TPST2 (in words): marked stabilisation

## Cc1ccc(NC(=O)c2cccc(N(C)C)c2)cc1NC(=O)c1ccc(O)cc1 [ZM336372]
[1]; TPST1 0.1 µM, duplicate
  TPST1 inhibition at 400 μM: essentially complete TPST1 inhibition
[1]; [11]
  IC50: 253 µM

## O=C1Nc2ccc(C(=O)c3ccco3)cc2C1=Cc1cc(Cl)c(O)c(Cl)c1 [GW406108X]
[2]; 20 µM compound, 4% DMSO, hit cut-off ΔTm ± 0.5°C
  TPST1 DSF screen of PKIS, rank of hit: top compound
[1]; [9]
  IC50: 16 µM

## O=C1Nc2ccc(-c3cccnc3)cc2C1=Cc1cc(Br)c(O)c(Br)c1 [GW429374A]
[1]; [9]
  IC50: 9.8 µM

## CC(C)(C)c1nc(-c2cccc(NS(=O)(=O)c3c(F)cccc3F)c2F)c(-c2ccnc(N)n2)s1 [Dabrafenib, dabrafenib]
[1]; TPST1 0.1 µM, duplicate
  TPST1 inhibition at 400 μM: essentially complete TPST1 inhibition
[1]; [11]
  IC50: 269 µM

## COC(=O)c1ccc2c(c1)C(=Cc1cc(Br)c(O)c(Br)c1)C(=O)N2 [GW405841X]
[1]; [9]
  IC50: > 40 µM

## CC(C)(COP(=O)(O)OP(=O)(O)OC[C@H]1O[C@@H](n2cnc3c(N)ncnc32)[C@H](O)[C@@H]1O)[C@@H](O)C(=O)NCCC(=O)NCCS [dephospho-CoA, 3′-dephosphoCoA]
[2]
  Thermal shift of TPST1 (in words): unable to induce thermal shifts
[3]; 0.5 mM nucleotide
  Thermal shift of TPST2 (in words): unable to induce thermal shifts
[1]; CC4-tide
  Sensitivity of TPST1 inhibition to the concentration of PAPS: largely insensitive
[1]; [10]
  IC50: 166 µM

## CNC(=O)c1cncc(/C=C/c2ccccc2C)c1 [GW445015X]
[1]
  inhibition at 20 µM: > 40%

## Cc1cc(-c2ccco2)cc(C)c1/C=C/c1cncc(-c2nn[nH]n2)c1 [GW458344A]
[1]
  inhibition at 20 µM: > 40%

## CCCS(=O)(=O)Nc1ccc(F)c(C(=O)c2c[nH]c3ncc(-c4ccc(Cl)cc4)cc23)c1F [Vemurafenib, vemurafenib]
[1]; TPST1 0.1 µM, duplicate
  TPST1 inhibition at 400 μM: essentially complete TPST1 inhibition
[1]; [11]
  IC50: 42.9 µM and ~40 µM

## CNC(=O)c1cc(Oc2ccc(NC(=O)Nc3ccc(Cl)c(C(F)(F)F)c3)cc2)ccn1 [Sorafenib, sorafenib]
[1]; TPST1 0.1 µM, duplicate
  TPST1 inhibition at 400 μM: essentially complete TPST1 inhibition
[1]; [11]
  IC50: 119 µM

## CNC(=O)c1cncc(/C=C/c2ccccc2Cl)c1 [GW445017X]
[1]
  inhibition at 20 µM: > 40%

## Nc1ncnc2c1ncn2[C@@H]1O[C@H](COP(=O)(O)O)[C@@H](O)[C@H]1O [AMP, adenosine 5′-monophosphate]
[2]
  Thermal shift of TPST1 (in words): lack of significant thermal shift
[3]; 0.5 mM nucleotide
  Thermal shift of TPST2 (in words): lack of significant thermal shift

B1: human TPST1 (Homo sapiens) (protein)
chain: T1 sequence (O60507 43-360)
notes: human TPST1 (residues Lys43–Leu360) and TPST2 (residues Gly43–Leu359) enzymes lacking the transmembrane domains; made in house; host or cells: E. coli BL21 (DE3) pLysS
[8]
  Km: 6.6 ± 1.9 µM
